Assay results: article PMC11855827, “High-Throughput Screening of Five Compound Libraries for Anthelmintic Activity and Toxicity Leads to the Discovery of Two Flavonoid Compounds” (International Journal of Molecular Sciences, 2025)

System: C. elegans
Settings: Table S2, C. elegans SS assay, 110 μM, averages of 4 data points

| Structure (SMILES) | Percentage of motility inhibition 0 h | Percentage of motility inhibition 24 h |
| --- | --- | --- |
| CC12CCC(CC1=O)C2(C)C (stereo not drawn) [(+)‐Camphor] | 31% | 1% |
| Oc1cc(O)c2c(c1)O[C@H](c1cc(O)c(O)c(O)c1)[C@@H](O)C2 [(+)‐Gallocatechin] | 0% | 12% |
| COC1=CC(=O)OC(/C=C/c2ccccc2)C1 (stereo not drawn) [(+)‐Kavain] | 38% | 14% |
| COc1ccc2c(c1O)-c1c(O)c(OC)cc3c1[C@H](C2)[N+](C)(C)CC3.[Cl-] [(+)‐Magnoflorine (chloride)] | 0% | 0% |
| COc1ccc2c(c1O)-c1c(O)c(OC)cc3c1[C@H](C2)[N+](C)(C)CC3.[I-] [(+)‐Magnoflorine (iodide)] | 10% | 8% |
| CC1=CC[C@@]23C[C@@H]1C(C)(C)[C@@H]2CC[C@H]3C [(-)-Cedrene] | 0% | 17% |
| Oc1ccc2c(c1)OC[C@H]1c3cc4c(cc3O[C@@H]21)OCO4 [(-)-Maackiain] | 26% | 26% |
| O=C1C=C2C=C[C@@H]3C[C@@]2(O1)[C@H]1CCCCN31 [(-)-Securinine] | – | 5% |
| CC1=CCC2CC1C2(C)C (stereo not drawn) [(-)-α-Pinene] | 0% | 6% |
| CC1=CC[C@@H](C(C)(C)O)CC1 [(-)-α-Terpineol] | 15% | 17% |
| C=CC(=C)CC/C=C(\C)CCC=C(C)C [(E)-β-Farnesene] | 0% | 11% |
| COc1cc(O)cc(O)c1C(=O)/C=C/c1ccccc1 [(E)‐Cardamonin] | 13% | 8% |
| COc1ccc(/C=C/C(=O)c2c(O)cc(OC)cc2OC)cc1 [(E)‐Flavokawain A] | 33% | 11% |
| CC(C)=CCC[C@@H](C)CCO [(R)-Citronellol] | 1% | 14% |
| COc1ccc2cc1Oc1ccc(cc1)C[C@H]1c3cc(c(OC)cc3CCN1C)Oc1c(O)c(OC)cc3c1[C@H](C2)N(C)CC3 [(R)‐Fangchinoline] | 44% | 1% |
| CC(C)=CCC[C@H](C)CC=O [(S)-(-)-Citronellal] | 18% | 61% |
| C=C(C)[C@@H]1CC=C(CO)CC1 [(S)-(−)-Perillyl alcohol] | 36% | 35% |
| Cn1nnc(-c2ccc(-c3ccc(N4C[C@@H](CO)OC4=O)cc3F)cn2)n1 [(S)‐Tedizolid] | 26% | 5% |
| O=C(O[C@H]1Cc2c(O)cc(O)cc2O[C@@H]1c1ccc(O)c(O)c1)c1cc(O)c(O)c(O)c1 [(‐)‐Catechin gallate] | 3% | 0% |
| COc1cc2c(cc1OC)[C@@H]1Cc3ccc(OC)c(OC)c3C[N@@+]1([O-])CC2 [(‐)‐Corynoxidine] | 19% | 10% |
| Oc1ccc([C@H]2Oc3cc(O)cc(O)c3C[C@H]2O)cc1 [(‐)‐Epiafzelechin] | 13% | 42% |
| O=C(O[C@@H]1Cc2c(O)cc(O)cc2O[C@@H]1c1cc(O)c(O)c(O)c1)c1cc(O)c(O)c(O)c1 [(‐)‐Epigalloca techin Gallate] | 9% | 6% |
| COc1cc2c(cc1O)[C@@H]1Cc3ccc(OC)c(OC)c3CN1CC2 [(‐)‐Isocorypalmine] | 0% | 0% |
| Cn1cc[n+](C[C@@]2(C)[C@H](C(=O)[O-])N3C(=O)C[C@H]3S2(=O)=O)n1 [AAI101] | 27% | 0% |

| Structure (SMILES) | Percentage of motility inhibition 0 h | Percentage of motility inhibition 24 h |
| --- | --- | --- |
| NC(=O)c1ncn([C@@H]2O[C@H](CO)[C@@H](O)[C@H]2O)c1N.O=P(O)(O)O [AICAR (phosphate)] | 20% | 6% |
| CC(=O)O[C@@H]1CC[C@@]2(C)[C@@H](CC[C@]3(C)[C@@H]2C(=O)C=C2[C@@H]4[C@@H](C)[C@H](C)CC[C@]4(C)CC[C@]23C)[C@@]1(C)C(=O)O [AKBA] | 0% | 6% |
| Nc1nc(NC2CC2)c2ncn([C@H]3C=C[C@@H](CO)C3)c2n1.Nc1nc(NC2CC2)c2ncn([C@H]3C=C[C@@H](CO)C3)c2n1.O=S(=O)(O)O [Abacavir (sulfate)] | 29% | 2% |
| CC(=O)OC[C@H]1O[C@@H](OC[C@H]2O[C@@H](OC(=O)[C@]34CCC(C)(C)C[C@H]3C3=CC[C@@H]5[C@@]6(C)CC[C@H](O[C@@H]7OC[C@H](O)[C@H](O)[C@H]7O[C@@H]7O[C@H](CO)[C@@H](O)[C@H](O)[C@H]7O)C(C)(C)[C@@H]6CC[C@@]5(C)[C@]3(C)CC4)[C@H](O)[C@@H](O)[C@@H]2O)[C@H](O)[C@@H](O)[C@@H]1O[C@@H]1O[C@@H](C)[C@H](O)[C@@H](O)[C@H]1O [Acanthopanaxoside B] | 0% | 0% |
| CC(=O)NO [Acetohydroxamic acid] | 13% | 4% |
| CC(=O)O[C@H]1Cc2cc3c(cc2[C@H]2N(C)Cc4c(ccc5c4OCO5)[C@@]12C)OCO3 [Acetylcorynoline] | 34% | 11% |
| CC(=O)O[C@H](C[C@@H](C)[C@H]1C(=O)[C@H](O)[C@@]2(C)[C@@H]3CC[C@H]4C(C)(C)[C@@H](O[C@@H]5OC[C@H](O)[C@H](O)[C@H]5O)CC[C@@]45C[C@@]35CC[C@]12C)[C@@H]1OC1(C)C [Acetylshengmanol Arabinoside] | 30% | 30% |
| CC(=O)O[C@H](CC(=O)O)C[N+](C)(C)C.[Cl-] [Acetyl‐L‐carni tine (hydrochloride)] | 12% | 0% |
| COCCNC(=O)Nc1ccc2nc(-c3cccs3)c(-c3cccs3)nc2c1 [Ac‐CoA Synthase Inhibitor1] | 16% | 8% |
| Nc1ncnc2nc[nH]c12.Nc1ncnc2nc[nH]c12.O=S(=O)(O)O [Adenine (hemisulfate)] | 3% | 5% |
| Cl.Nc1ncnc2nc[nH]c12 [Adenine (hydrochloride)] | 0% | 0% |
| Nc1ncnc2c1ncn2[C@@H]1O[C@H](COP(=O)(O)O)[C@@H](O)[C@H]1O.O [Adenosine 5'-monophosphate (monohydrate)] | 20% | 2% |
| Nc1ncnc2c1ncn2[C@@H]1O[C@H](COP(=O)(O)O)[C@@H](O)[C@H]1O [Adenosine monophosphate] | 8% | 6% |
| C/C1=C2/[N-][C@H]([C@H](CC(N)=O)[C@@]2(C)CCC(=O)NC[C@@H](C)OP(=O)([O-])O[C@H]2[C@@H](O)[C@@H](n3cnc4cc(C)c(C)cc43)O[C@@H]2CO)[C@]2(C)N=C(/C(C)=C3N=C(/C=C4N=C1[C@@H](CCC(N)=O)C\4(C)C)[C@@H](CCC(N)=O)[C@]\3(C)CC(N)=O)[C@@H](CCC(N)=O)[C@]2(C)CC(N)=O.[CH2-][C@H]1O[C@@H](n2cnc3c(N)ncnc32)[C@H](O)[C@@H]1O.[Co] [Adenosylcobalamin] | 20% | 22% |
| COC(=O)C1=CO[C@@H](C)[C@H]2CN3CCc4c([nH]c5ccccc45)[C@@H]3C[C@H]12 [Ajmalicine] | 0% | 1% |
| C[C@]1(O)C[C@@H](O)[C@@H]2C=CO[C@@H](O[C@@H]3O[C@H](CO)[C@@H](O)[C@H](O)[C@H]3O)[C@@H]21 [Ajugol] | 0% | 2% |
| C=C1C(=O)O[C@@H]2C[C@@]3(C)CCC[C@H](C)C3=C[C@H]12 [Alantolactone] | 6% | 29% |
| C[C@]12C[C@@H](O)[C@@H]3C[C@@]1(O[C@@H]1O[C@H](CO)[C@@H](O)[C@H](O)[C@H]1O)[C@@]3(COC(=O)c1ccccc1)C(=O)O2 [Albiflorin] | 0% | 2% |
| CC(=O)O[C@H]([C@@H](O)C[C@@H](C)C1=C2C[C@H](O)[C@H]3[C@@]4(C)CCC(=O)C(C)(C)[C@@H]4CC[C@]3(C)[C@@]2(C)CC1)C(C)(C)O [Alisol A 24-acetate] | 3% | 23% |
| CC(=O)O[C@@H](C[C@@H](C)C1=C2C[C@H](O)[C@H]3[C@@]4(C)CCC(=O)C(C)(C)[C@@H]4CC[C@]3(C)[C@@]2(C)CC1=O)[C@H]1OC1(C)C [Alisol C 23-acetate] | 0% | 17% |
| C[C@@H]1C[C@@H]([C@@H](O)C(C)(C)O)O[C@H]2C[C@@]3(C)C(=C12)C[C@H](O)[C@H]1[C@@]2(C)CCC(=O)C(C)(C)[C@@H]2CC[C@@]13C [Alisol F] | 0% | 11% |
| O=C1CCC[C@@H]2[C@H]3CCCN4CCC[C@@H](CN12)[C@H]34 [Allomatrine] | 0% | 0% |
| O=C1C=C2C=C[C@@H]3C[C@@]2(O1)[C@@H]1CCCCN31 [Allosecurinine] | 23% | 29% |
| C1=C2CCCN[C@H]2[C@@H]2C[C@H]1[C@H]1CCCCN1C2 [Aloperine] | 20% | 0% |
